Experiments:
MERTK = target: T1, MERTK (Homo sapiens, UniProt Q12866); assay: TR-FRET kinase activity assay, MERTK; assay type: biochemical; conditions: for IC50: TR-FRET activity assay, ATP at Km, 60 minutes, read-out: Mer IC50; for FLT3/Mer ratio (FLT3 IC50/Mer IC50): ratio of Mer to FLT3: FLT3 IC50/Mer IC50
T1 sequence (Q12866 21-999): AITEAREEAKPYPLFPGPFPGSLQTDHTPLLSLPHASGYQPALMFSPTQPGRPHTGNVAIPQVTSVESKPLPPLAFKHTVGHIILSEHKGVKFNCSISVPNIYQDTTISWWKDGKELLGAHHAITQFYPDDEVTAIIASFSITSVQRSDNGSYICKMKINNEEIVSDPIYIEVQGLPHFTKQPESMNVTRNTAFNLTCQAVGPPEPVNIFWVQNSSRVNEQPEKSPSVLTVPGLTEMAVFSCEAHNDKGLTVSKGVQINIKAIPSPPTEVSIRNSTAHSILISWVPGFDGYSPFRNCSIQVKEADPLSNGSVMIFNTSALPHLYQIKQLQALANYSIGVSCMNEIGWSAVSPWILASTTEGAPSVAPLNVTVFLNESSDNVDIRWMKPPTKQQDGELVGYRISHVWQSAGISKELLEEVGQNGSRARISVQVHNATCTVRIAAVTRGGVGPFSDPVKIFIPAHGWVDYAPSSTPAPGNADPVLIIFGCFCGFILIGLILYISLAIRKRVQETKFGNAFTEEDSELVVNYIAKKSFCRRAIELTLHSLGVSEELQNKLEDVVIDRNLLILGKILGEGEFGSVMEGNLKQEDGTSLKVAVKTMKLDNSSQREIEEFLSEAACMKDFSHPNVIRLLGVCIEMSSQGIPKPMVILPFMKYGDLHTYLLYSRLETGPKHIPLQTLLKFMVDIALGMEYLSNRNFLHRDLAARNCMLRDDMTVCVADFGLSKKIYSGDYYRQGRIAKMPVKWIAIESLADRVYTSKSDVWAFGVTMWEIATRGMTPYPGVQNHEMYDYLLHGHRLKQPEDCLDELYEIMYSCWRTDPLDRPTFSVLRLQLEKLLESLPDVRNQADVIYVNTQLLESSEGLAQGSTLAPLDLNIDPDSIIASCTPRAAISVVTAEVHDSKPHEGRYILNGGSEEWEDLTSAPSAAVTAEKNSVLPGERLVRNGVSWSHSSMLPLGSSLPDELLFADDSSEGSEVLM
Outline: (§1)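 Enzyme, fluorescent peptide substrate and compound were mixed, and the reaction was started with ATP at each kinase's Km, in 50 mM HEPES pH 7.5, 10 mM MgCl2, 1 mM EGTA, 0.01% Brij 35, 1 mM DTT at RT. After 60 minutes EDTA quench, Eu-labelled phospho-specific antibody was added for 30 minutes, and IC50 was derived from TR-FRET signal loss.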

TYRO3 = target: T2, TYRO3 (Homo sapiens, UniProt Q06418); assay: TR-FRET kinase activity assay, TYRO3; assay type: biochemical; conditions: ATP at Km, 60 minutes
T2 sequence (Q06418 41-890): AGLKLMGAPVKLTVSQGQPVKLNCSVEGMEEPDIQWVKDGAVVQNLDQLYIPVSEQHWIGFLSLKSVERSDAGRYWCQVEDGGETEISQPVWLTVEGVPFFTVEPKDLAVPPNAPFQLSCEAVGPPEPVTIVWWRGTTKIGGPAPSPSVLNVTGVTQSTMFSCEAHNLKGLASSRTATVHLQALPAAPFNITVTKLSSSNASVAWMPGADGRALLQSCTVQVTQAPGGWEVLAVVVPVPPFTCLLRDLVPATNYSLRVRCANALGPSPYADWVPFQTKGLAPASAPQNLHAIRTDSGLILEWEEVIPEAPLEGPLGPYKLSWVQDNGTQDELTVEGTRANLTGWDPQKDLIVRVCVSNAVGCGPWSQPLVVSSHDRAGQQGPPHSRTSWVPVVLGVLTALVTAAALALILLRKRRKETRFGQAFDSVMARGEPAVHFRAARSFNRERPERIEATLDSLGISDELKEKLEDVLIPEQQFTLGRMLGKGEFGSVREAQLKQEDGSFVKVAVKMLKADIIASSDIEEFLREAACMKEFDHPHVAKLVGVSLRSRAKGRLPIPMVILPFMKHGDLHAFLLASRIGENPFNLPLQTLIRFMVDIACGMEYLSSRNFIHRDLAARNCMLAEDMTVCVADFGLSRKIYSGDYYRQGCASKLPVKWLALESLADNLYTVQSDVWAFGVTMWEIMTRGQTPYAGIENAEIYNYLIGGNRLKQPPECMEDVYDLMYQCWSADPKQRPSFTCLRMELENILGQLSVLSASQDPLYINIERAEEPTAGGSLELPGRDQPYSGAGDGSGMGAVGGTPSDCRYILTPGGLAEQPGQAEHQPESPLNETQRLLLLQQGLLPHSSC
Outline: as §1

| SMILES | IC50 (MERTK) | FLT3/Mer ratio (FLT3 IC50/Mer IC50) (MERTK) | IC50 (TYRO3) |
| --- | --- | --- | --- |
| CCCCC[C@H](C)Nc1ncc2c(NC3CCN(C)CC3)cc([C@H]3CC[C@H](O)CC3)n2n1 [Compound 107] | ≤ 0.1 µM | +++ (“+++” represents a ratio of >100) | ≤ 0.1 µM |
| COC[C@H](C)Nc1ncc2c(-c3cnn(CC(=O)NC(C)C)c3)cc([C@H]3CC[C@H](O)CC3)n2n1 [Compound 235] | ≤ 0.1 µM | +++ (“+++” represents a ratio of >100) | ≤ 0.1 µM |
| COC[C@H](C)Nc1ncc2c(-c3cncc(C(=O)N4CCN(C)CC4)c3)cc([C@H]3CC[C@H](O)CC3)n2n1 [Compound 234] | ≤ 0.1 µM | +++ (“+++” represents a ratio of >100) | ≤ 0.1 µM |
| COCC(C)Nc1ncc2c(-c3ccc(-c4nnc(C)o4)cc3)cc(C3CCC(O)CC3)n2n1 (stereo not drawn) [Compound 198] | ≤ 0.1 µM | +++ (“+++” represents a ratio of >100) | ≤ 0.1 µM |
| COC[C@H](C)Nc1ncc2c(-c3cnn([C@@H]4CCOC4)c3)cc([C@H]3CC[C@H](O)CC3)n2n1 [Compound 242] | ≤ 0.1 µM | +++ (“+++” represents a ratio of >100) | ≤ 0.1 µM |
| CC(CCF)Nc1ncc2c(-c3ccc(CN4CCOCC4)cc3)cc(C3CCC(O)CC3)n2n1 (stereo not drawn) [Compound 244] | ≤ 0.1 µM | ++ (“++” represents a ratio of between 10 and 100) | ≤ 0.1 µM |
| C[C@@H](CC1CC1)Nc1ncc2c(-c3ccc(CN4CCN(C)CC4)cc3)cc([C@H]3CC[C@H](O)CC3)n2n1 [Compound 216] | ≤ 0.1 µM | ++ (“++” represents a ratio of between 10 and 100) | ≤ 0.1 µM |
| COC[C@H](C)Nc1ncc2c(-c3cccc(CN4CC[C@@H](F)C4)c3)cc([C@H]3CC[C@H](O)CC3)n2n1 [Compound 224] | ≤ 0.1 µM | +++ (“+++” represents a ratio of >100) | ≤ 0.1 µM |
| C[C@H](Nc1ncc2c(-c3ccc(CN4CCOCC4)cc3)cc([C@H]3CC[C@H](O)CC3)n2n1)[C@H]1CCCO1 [Compound 204] | 0.1 to 1 µM | ++ (“++” represents a ratio of between 10 and 100) | 0.1 to 1 µM |
| CCCCC[C@H](C)Nc1ncc2c(-c3ccc(CN4CCN(C)CC4)cc3)cc([C@H]3CC[C@H](O)CC3)n2n1 [Compound 104] | ≤ 0.1 µM | ++ (“++” represents a ratio of between 10 and 100) | ≤ 0.1 µM |

The remaining lines, values ahead:

| IC50 (MERTK) | FLT3/Mer ratio (FLT3 IC50/Mer IC50) (MERTK) | IC50 (TYRO3) | SMILES |
| --- | --- | --- | --- |
| ≤ 0.1 µM | +++ (“+++” represents a ratio of >100) | ≤ 0.1 µM | COC[C@H](C)Nc1ncc2c(-c3cccc4c3CNC4=O)cc([C@H]3CC[C@H](O)CC3)n2n1 [Compound 210] |
| ≤ 0.1 µM | +++ (“+++” represents a ratio of >100) | ≤ 0.1 µM | COC[C@H](C)Nc1ncc2c(-c3ccnc(N4CCN(C)CC4)c3)cc([C@H]3CC[C@H](O)CC3)n2n1 [Compound 256] |
| ≤ 0.1 µM | +++ (“+++” represents a ratio of >100) | ≤ 0.1 µM | C[C@@H](COC(F)F)Nc1ncc2c(-c3cnn(C4COC4)c3)cc([C@H]3CC[C@H](O)CC3)n2n1 [Compound 270] |
| ≤ 0.1 µM | +++ (“+++” represents a ratio of >100) | ≤ 0.1 µM | COCCn1cc(-c2cc([C@H]3CC[C@H](O)CC3)n3nc(N[C@@H](C)COC)ncc23)cn1 [Compound 209] |
| ≤ 0.1 µM | +++ (“+++” represents a ratio of >100) | ≤ 0.1 µM | COC[C@H](C)Nc1ncc2c(-c3cnn(C(C)(C)CO)c3)cc([C@H]3CC[C@H](O)CC3)n2n1 [Compound 265] |
| ≤ 0.1 µM | +++ (“+++” represents a ratio of >100) | ≤ 0.1 µM | Cc1cc(-c2cc([C@H]3CC[C@H](O)CC3)n3nc(N[C@@H](C)COC(C)C)ncc23)ccn1 [Compound 215] |
| ≤ 0.1 µM | +++ (“+++” represents a ratio of >100) | ≤ 0.1 µM | COC[C@H](C)Nc1ncc2c(-c3cnnc(C)c3)cc([C@H]3CC[C@H](O)CC3)n2n1 [Compound 267] |
| ≤ 0.1 µM | +++ (“+++” represents a ratio of >100) | ≤ 0.1 µM | COC[C@H](C)Nc1ncc2c(-c3cccc(CN4CCOCC4)c3)cc([C@H]3CC[C@H](O)CC3)n2n1 [Compound 217] |
| ≤ 0.1 µM | +++ (“+++” represents a ratio of >100) | ≤ 0.1 µM | COC[C@H](C)Nc1ncc2c(-c3cn(C)nc3C)cc([C@H]3CC[C@H](O)CC3)n2n1 [Compound 260] |

— patent US11040981B2, “Pyrrolotriazine compounds and methods of inhibiting TAM kinases” (Syros Pharmaceuticals, Inc., priority 2017, dated 2021)
